Reference: ChEMBL document CHEMBL1201862, “PubChem BioAssay data set” (2004)
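96-well plates; 48 h exposure; 5 concentrations. Endpoints by linear interpolation between flanking doses. Not reached: highest tested concentration assigned. The concentration for 50% growth inhibition is given as GI50.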 Activity calls are given as the source filed them. No stated cut-off is given here; in the data, active = GI50 up to about 1.1 µM and inactive = higher.

Legend:
Test in all cases: growth of human tumour cells (NCI), 48 h
SN12C = tested on: SN12C
OVCAR-3 = tested on: OVCAR-3
TK-10 = tested on: TK-10
HOP-92 = tested on: HOP-92
A498 = tested on: A498
ACHN = tested on: ACHN
A549 = tested on: A549
OVCAR-8 = tested on: OVCAR-8
RPMI-8226 = tested on: RPMI-8226
NCI-H23 = tested on: NCI-H23
OVCAR-4 = tested on: OVCAR-4
HOP-62 = tested on: HOP-62
UACC-257 = tested on: UACC-257
OVCAR-5 = tested on: OVCAR-5
NCI-H460 = tested on: NCI-H460
RXF 393 = tested on: RXF 393
NCI-H226 = tested on: NCI-H226
CCRF-CEM = tested on: CCRF-CEM
786-0 = tested on: 786-0

Measured: GI50

C#CCN(N=O)C(=O)NCCCCC(NC(C)=O)C(=O)NCc1ccccc1 (stereo not given)
inactive: SN12C > 100 µM | OVCAR-3 > 100 µM | TK-10 > 100 µM | HOP-92 > 100 µM | A498 > 100 µM | ACHN > 100 µM | A549 > 100 µM | OVCAR-8 > 100 µM | RPMI-8226 51.2 µM | NCI-H23 > 100 µM | OVCAR-4 > 100 µM | HOP-62 > 100 µM | UACC-257 > 100 µM | OVCAR-5 > 100 µM | NCI-H460 > 100 µM | RXF 393 > 100 µM | NCI-H226 > 100 µM | CCRF-CEM 28.4 µM | 786-0 > 100 µM

CC(C)CCCC(C)[C@H]1CCC2[C@H]3C(CC[C@@]21C)[C@@]1(C)CCC=C[C@]12C[C@@H]2[C@@H]3O (stereo not given in full)
inactive: SN12C > 100 µM | OVCAR-3 > 100 µM | TK-10 > 100 µM | HOP-92 > 100 µM | A498 > 100 µM | ACHN > 100 µM | A549 > 100 µM | OVCAR-8 > 100 µM | RPMI-8226 > 100 µM | OVCAR-4 > 100 µM | HOP-62 > 100 µM | UACC-257 > 100 µM | OVCAR-5 > 100 µM | NCI-H460 > 100 µM | RXF 393 > 100 µM | NCI-H226 > 100 µM | CCRF-CEM > 100 µM | 786-0 > 100 µM

CC(C)[Si](OCC1CC(C#N)OC(C)(C)O1)(C(C)C)C(C)C (stereo not given)
inactive: SN12C 32.4 µM | OVCAR-3 15.6 µM | TK-10 39.5 µM | HOP-92 21.7 µM | A498 6.3 µM | ACHN 16 µM | A549 30.8 µM | OVCAR-8 21.1 µM | RPMI-8226 14.2 µM | NCI-H23 19.3 µM | OVCAR-4 30.3 µM | HOP-62 23.7 µM | UACC-257 17.3 µM | OVCAR-5 44 µM | NCI-H460 16.5 µM | RXF 393 17.1 µM | NCI-H226 19.1 µM | CCRF-CEM 19.5 µM | 786-0 18.8 µM

COc1ccc(NCc2cc(OC)cc(OC)c2)cc1
inactive: SN12C 36.1 µM | OVCAR-3 11.9 µM | TK-10 50.7 µM | HOP-92 78.5 µM | A498 27.5 µM | ACHN 45.6 µM | A549 17.6 µM | OVCAR-8 49.1 µM | RPMI-8226 17 µM | NCI-H23 26.3 µM | OVCAR-4 18.5 µM | HOP-62 8.53 µM | UACC-257 40.6 µM | OVCAR-5 24.7 µM | NCI-H460 20.1 µM | RXF 393 13.7 µM | NCI-H226 38.3 µM | CCRF-CEM 25.2 µM | 786-0 48.1 µM
